We go through 25 compounds from the supplement of paper PMC10290057.

Test [1] deals with HCT116. Put plainly: AC50 cell viability (CellTiter-Glo); higher = less potent. Conditions: 48 h. (Cellular ATP, detected with luciferase, serves as a proxy for viable cell number.)
Test [2] concerns HCT116. Put plainly: efficacy (fitted maximal change in viability relative to DMSO control); higher = less cytotoxic (negative = loss of viability). Conditions: 48 h.
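Throughout, for AC50 cell viability (CellTiter-Glo): HCT116 colorectal carcinoma cells screened at five concentrations per compound, luminescent viability scaled between DMSO wells and empty wells on each plate, curves fitted per compound.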
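Throughout, for efficacy (fitted maximal change in viability relative to DMSO control): Luminescence-based viability readout, five doses per compound, normalized against on-plate DMSO and empty-well controls, followed by dose-response curve fitting for every drug.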

With `COc1c(C)cnc(Cn2cnc3c(Cl)nc(N)nc32)c1C` [CNF-2024], in the test with HCT116 [1], the AC50 cell viability is 0.148 µM. Besides, the efficacy in the test with HCT116 [2] is -57%.

Take `C=CC(=O)Nc1cccc(Nc2nc(Nc3ccc(Oc4ccnc(C(=O)NC)c4)cc3)ncc2F)c1` [CNX-774]: the AC50 cell viability in the test with HCT116 [1] worked out at 14.8 µM. Also, in the test with HCT116 [2], the efficacy was -111%.

On to `C=CC(=O)Nc1cccc(Nc2nc(Nc3ccc(NC4CN(CCF)C4)cc3OC)ncc2C(F)(F)F)c1` [CNX-2006], for which the AC50 cell viability in the test on HCT116 [1] worked out at 10.5 µM. For the same compound, in the test with HCT116 [2], the efficacy was -105%.

Compound `CC1=C(C)C\2=C(S1)[N]3C(=NN=C3C(CC(N)=O)\N=C2C4=CC=C(Cl)C=C4)C` (stereo not given) [CPI-203] displayed an AC50 cell viability in the test with HCT116 [1] of 0.295 µM. In the test on HCT116 [2], the efficacy is -62.8%.

In the test on HCT116 [1], `CC1=C(C)C\2=C(S1)[N]3C(=NN=C3[C@H](CC(N)=O)\N=C2C4=CC=C(Cl)C=C4)C` [CPI-203] yielded an AC50 cell viability of 0.372 µM. Further, in the test with HCT116 [2], the efficacy was -58.5%.

Take `Cc1noc2c1-c1ccccc1C(c1ccc(Cl)cc1)=N[C@H]2CC(N)=O` [CPI-0610]: in the test with HCT116 [1], the AC50 cell viability came out at 1.05 µM. In addition, in the test with HCT116 [2], the efficacy was -65.4%.

Regarding `C[C@@H]1CC(=O)Nc2cccc(-c3ccc4c(c3)c(-c3cnn(C)c3)nn4C)c2N1` [CPI-637], in the test on HCT116 [1], the AC50 cell viability is 11.8 µM. Besides, the efficacy in the test with HCT116 [2] was -82.6%.

With `C[C@@H]1CC(=O)Nc2cccc(-c3cnn(C(C)(C)C)c3)c2N1` [CPI-703], in the test with HCT116 [1], the AC50 cell viability worked out at 16.6 µM. Also, the efficacy with HCT116 [2] is -37.4%.

Take `O=C(NO)C1(C[S+](=O)([O-])c2ccc(Oc3ccc(Cl)cc3)cc2)CCOCC1` [CTS-1027]: in the test on HCT116 [1], the AC50 cell viability worked out at 20.9 µM. In addition, the efficacy with HCT116 [2] was -61.5%.

In the test with HCT116 [1], `C#Cc1cccc(Nc2ncnc3cc(OC)c(OCCCCCCC(=O)NO)cc23)c1` [CUDC-101] showed an AC50 cell viability of 0.332 µM. Besides, the efficacy in the test with HCT116 [2] is -81.3%.

As for `CN(C)c1cc2c(cc1Sc1nc3c(N)nccc3n1CCNCC(C)(C)C)OCO2` [CUDC-305], the AC50 cell viability in the test with HCT116 [1] came to 0.468 µM. For the same compound, the efficacy in the test on HCT116 [2] was -66.5%.

In the case of `COc1ccc(-c2nc(N3CCOCC3)c3sc(CN(C)c4ncc(C(=O)NO)cn4)cc3n2)cn1` [CUDC-907], the AC50 cell viability in the test with HCT116 [1] stood at 0.0372 µM. Besides, the efficacy in the test with HCT116 [2] is -96.8%.

On to `COc1ccc(CNc2nc(N(CCO)CCO)nc3c2ncn3C(C)C)cc1` [CVT-313], for which, in the test with HCT116 [1], the AC50 cell viability came to 3.32 µM. The efficacy in the test on HCT116 [2] is -54.3%.

`CN1CCCN(CC1)C2=CC=C3C(=O)\C(=C/4SC5=C(C=CC=C5)N4C3=N2)C(=O)NCC6=CN=C(C)C=N6` [CX-5461] came in with an AC50 cell viability with HCT116 [1] of 1.35 µM. Moreover, the efficacy with HCT116 [2] is -49.8%.

As to `CN1CCCN(C(=O)c2cccc(-c3ccc(/C=C4/C(=O)Nc5ccc(Cl)cc54)o3)c2)CC1` [CX-6258], in the test on HCT116 [1], the AC50 cell viability amounted to 7.42 µM. The efficacy with HCT116 [2] is -97.8%.

`Cc1nc(N)sc1-c1ccnc(Nc2ccc(N3CCOCC3)cc2)n1` [CYC-116] registered an AC50 cell viability in the test on HCT116 [1] of 2.09 µM. In addition, in the test on HCT116 [2], the efficacy is -61%.

On to `CO[C@H]1C[C@H]2OC[C@@]2(OC(C)=O)[C@H]3[C@H](OC(=O)C4=CC=CC=C4)[C@]5(O)C[C@H](OC(=O)[C@H](O)[C@@H](NC(=O)OC(C)(C)C)C6=CC=CC=C6)/C(=C(/[C@@H](OC)C(=O)[C@]13C)C5(C)C)C` [Cabazitaxel], for which the AC50 cell viability in the test with HCT116 [1] came out at 0.00263 µM. For the same compound, the efficacy with HCT116 [2] was -57.4%.

For the compound `COc1cc2nccc(Oc3ccc(NC(=O)C4(C(=O)Nc5ccc(F)cc5)CC4)cc3)c2cc1OC` [Cabozantinib], in the test with HCT116 [1], the AC50 cell viability was 7.42 µM. In addition, the efficacy with HCT116 [2] was -65.4%.

`CC(N[C@H]1CCCC[C@@H]1NC(=O)c1ccc(Cl)cc1)c1cccc2ccccc12` (stereo not given in full) [Calhex-231] yielded an AC50 cell viability in the test on HCT116 [1] of 9.34 µM. The efficacy in the test with HCT116 [2] is -92.8%.

For `C[C@@H](NCc1cc2ccccc2[nH]1)c1cccc2ccccc12` [Calindol], in the test on HCT116 [1], the AC50 cell viability stood at 13.2 µM. Further, in the test with HCT116 [2], the efficacy was -94.8%.

In the test on HCT116 [1], `Clc1ccc(C(c2ccc(Cl)cc2)[n+]2ccn(CC(OCc3ccc(Cl)cc3Cl)c3ccc(Cl)cc3Cl)c2)cc1` (stereo not given) [Calmidazolium chloride] came in with an AC50 cell viability of 10.5 µM. Also, the efficacy in the test on HCT116 [2] was -100%.

`Cc1ccc([C@@H]2O[C@H](CO)[C@@H](O)[C@H](O)[C@H]2O)cc1Cc1ccc(-c2ccc(F)cc2)s1` [Canagliflozin] returned an AC50 cell viability in the test with HCT116 [1] of 23.5 µM. Also, the efficacy with HCT116 [2] was -83.7%.

In the test on HCT116 [1], `C=CC(=O)Nc1cc2c(Nc3ccc(F)c(Cl)c3)ncnc2cc1OCCCN1CCOCC1` [Canertinib] returned an AC50 cell viability of 14.8 µM. Besides, the efficacy with HCT116 [2] was -116%.

Turning to `CCCCCC1=CC(=C([C@@H]2\C=C(C)/CC[C@H]2C(C)=C)C(=C1)O)O` [Cannabidiol], in the test on HCT116 [1], the AC50 cell viability stood at 20.9 µM. For the same compound, in the test on HCT116 [2], the efficacy was -84.5%.

`C[C@@]12C(=O)OC(=O)[C@]1(C)[C@H]1CC[C@@H]2O1` [Cantharidin] yielded an AC50 cell viability in the test with HCT116 [1] of 9.34 µM. In the test on HCT116 [2], the efficacy is -86.9%.
